Test: molar heat capacity at constant pressure
Details: 101.33 kPa

Clc1ccc(Cl)cc1 [1,4-dichlorobenzene]
Details | molar heat capacity at constant pressure [J/K/mol]
5.11 K, Crystal 3 | 0.29
6.43 K, Crystal 3 | 0.42
7.21 K, Crystal 3 | 0.83
7.89 K, Crystal 3 | 1.18
9.58 K, Crystal 3 | 2.1
10 K, Crystal 3 | 2.33
11.66 K, Crystal 3 | 3.22
13.08 K, Crystal 3 | 4.5
14.5 K, Crystal 3 | 6.12
15 K, Crystal 3 | 6.7
15.94 K, Crystal 3 | 7.81
18.49 K, Crystal 3 | 10.86
19 K, Crystal 3 | 11.19
20 K, Crystal 3 | 12.69
20.21 K, Crystal 3 | 12.96
21.65 K, Crystal 3 | 14.62
22.92 K, Crystal 3 | 16.12
24.05 K, Crystal 3 | 17.45
25 K, Crystal 3 | 18.52
25.09 K, Crystal 3 | 18.62
26.05 K, Crystal 3 | 19.66
28.53 K, Crystal 3 | 21.78
30 K, Crystal 3 | 23.27
32.77 K, Crystal 3 | 26.1
34.99 K, Crystal 3 | 28.16
36.99 K, Crystal 3 | 29.91
38.82 K, Crystal 3 | 31.33
40 K, Crystal 3 | 32.27
42.09 K, Crystal 3 | 33.94
44.35 K, Crystal 3 | 35.66
46.46 K, Crystal 3 | 37.19
48.44 K, Crystal 3 | 38.2
50 K, Crystal 3 | 39.36
52.09 K, Crystal 3 | 40.68
53.8 K, Crystal 3 | 41.66
55.44 K, Crystal 3 | 42.56
57.02 K, Crystal 3 | 43.48
58.55 K, Crystal 3 | 44.32
60 K, Crystal 3 | 45.13
60.03 K, Crystal 3 | 45.14
63.79 K, Crystal 3 | 47.24
66.94 K, Crystal 3 | 48.83
69.94 K, Crystal 3 | 50.35
70 K, Crystal 3 | 50.38
72.81 K, Crystal 3 | 51.62
80 K, Crystal 3 | 55.34
82.41 K, Crystal 3 | 56.53
85.29 K, Crystal 3 | 57.82
88.14 K, Crystal 3 | 59.02
90 K, Crystal 3 | 59.86
91.01 K, Crystal 3 | 60.3
93.9 K, Crystal 3 | 61.52
96.8 K, Crystal 3 | 62.72
99.71 K, Crystal 3 | 63.94
100 K, Crystal 3 | 64.06
102.62 K, Crystal 3 | 65.39
103.2 K, Crystal 3 | 65.58
105.55 K, Crystal 3 | 66.59
107.33 K, Crystal 3 | 67.31
108.49 K, Crystal 3 | 67.79
110 K, Crystal 3 | 68.42
111.35 K, Crystal 3 | 68.99
111.43 K, Crystal 3 | 69.01
114.39 K, Crystal 3 | 70.21
115.28 K, Crystal 3 | 70.59
117.35 K, Crystal 3 | 71.41
119.12 K, Crystal 3 | 72.17
120 K, Crystal 3 | 72.49
120.32 K, Crystal 3 | 72.62
122.89 K, Crystal 3 | 73.69
123.3 K, Crystal 3 | 73.82
126.28 K, Crystal 3 | 75.05
126.6 K, Crystal 3 | 75.16
129.27 K, Crystal 3 | 76.26
130 K, Crystal 3 | 76.54
130.24 K, Crystal 3 | 76.63
132.26 K, Crystal 3 | 77.49
133.83 K, Crystal 3 | 78.06
135.26 K, Crystal 3 | 78.7
137.36 K, Crystal 3 | 79.47
138.27 K, Crystal 3 | 79.99
140 K, Crystal 3 | 80.56
140.85 K, Crystal 3 | 80.87
141.27 K, Crystal 3 | 81.11
144.27 K, Crystal 3 | 82.33
147.28 K, Crystal 3 | 83.54
147.69 K, Crystal 3 | 83.58
150 K, Crystal 3 | 84.62
150.29 K, Crystal 3 | 84.72
151.05 K, Crystal 3 | 84.88
153.31 K, Crystal 3 | 85.92
156.33 K, Crystal 3 | 87.11
159.35 K, Crystal 3 | 88.32
160 K, Crystal 3 | 88.57
162.38 K, Crystal 3 | 89.5
165.4 K, Crystal 3 | 90.68
168.43 K, Crystal 3 | 91.85
170 K, Crystal 3 | 92.45
171.47 K, Crystal 3 | 93.01
177.53 K, Crystal 3 | 95.43
180 K, Crystal 3 | 96.42
180.53 K, Crystal 3 | 96.63
183.51 K, Crystal 3 | 97.84
186.47 K, Crystal 3 | 98.95
188.91 K, Crystal 3 | 99.81
189.41 K, Crystal 3 | 100.08
190 K, Crystal 3 | 100.33
191.9 K, Crystal 3 | 101.04
192.33 K, Crystal 3 | 101.32
194.87 K, Crystal 3 | 102.23
195.23 K, Crystal 3 | 102.39
197.82 K, Crystal 3 | 103.42
198.11 K, Crystal 3 | 103.53
200 K, Crystal 3 | 104.28
200.75 K, Crystal 3 | 104.57
200.98 K, Crystal 3 | 104.65
203.66 K, Crystal 3 | 105.76
206.55 K, Crystal 3 | 106.91
209.43 K, Crystal 3 | 108.06
210 K, Crystal 3 | 108.29
212.28 K, Crystal 3 | 109.21
215.03 K, Crystal 3 | 110.08
215.12 K, Crystal 3 | 110.42
217.8 K, Crystal 3 | 111.29
217.94 K, Crystal 3 | 111.43
220 K, Crystal 3 | 112.15
220.54 K, Crystal 3 | 112.37
220.75 K, Crystal 3 | 112.46
223.28 K, Crystal 3 | 113.45
225.99 K, Crystal 3 | 114.54
226.32 K, Crystal 3 | 114.68
228.7 K, Crystal 3 | 115.59
229.08 K, Crystal 3 | 115.81
230 K, Crystal 3 | 116.16
231.39 K, Crystal 3 | 116.65
231.82 K, Crystal 3 | 116.88
234.07 K, Crystal 3 | 117.7
234.55 K, Crystal 3 | 117.96
236.73 K, Crystal 3 | 118.76
237.27 K, Crystal 3 | 119.01
239.38 K, Crystal 3 | 119.79
239.97 K, Crystal 3 | 119.98
240 K, Crystal 3 | 119.99
242.02 K, Crystal 3 | 120.79
242.66 K, Crystal 3 | 121.05
244.65 K, Crystal 3 | 121.76
245.34 K, Crystal 3 | 122.11
247.26 K, Crystal 3 | 122.73
248 K, Crystal 3 | 123.17
249.87 K, Crystal 3 | 123.71
250 K, Crystal 3 | 123.77
250.66 K, Crystal 3 | 124.06
252.46 K, Crystal 3 | 124.73
253.3 K, Crystal 3 | 125.12
255.04 K, Crystal 3 | 125.74
257.61 K, Crystal 3 | 126.76
260 K, Crystal 3 | 127.72
260.16 K, Crystal 3 | 127.77
262.71 K, Crystal 3 | 128.79
265.24 K, Crystal 3 | 129.78
267.76 K, Crystal 3 | 130.84
270 K, Crystal 3 | 131.65
270.28 K, Crystal 3 | 131.78
272.78 K, Crystal 3 | 132.68
275 K, Crystal 2 | 134.45
275 K, Crystal 3 | 133.61
280 K, Crystal 2 | 135.94
281.42 K, Crystal 2 | 136.31
283.88 K, Crystal 2 | 137.36
286.32 K, Crystal 2 | 138.34
290 K, Crystal 2 | 139.78
292.1 K, Crystal 2 | 140.78
293.87 K, Crystal 2 | 141.42
296.42 K, Crystal 2 | 142.86
298.15 K, Crystal 2 | 143.78
298.96 K, Crystal 2 | 144.24
300 K, Crystal 2 | 144.8
301.51 K, Crystal 2 | 145.69
306 K, Crystal 1 | 147.86
306 K, Crystal 2 | 147.75
308.59 K, Crystal 1 | 148.61
310 K, Crystal 1 | 149.45
311.33 K, Crystal 1 | 150.45
314.11 K, Crystal 1 | 151.51
316.65 K, Crystal 1 | 152.8
319.2 K, Crystal 1 | 154.18
320 K, Crystal 1 | 154.72
321.74 K, Crystal 1 | 155.8
326.24 K, Crystal 1 | 158
326.24 K, Liquid | 175.98
330 K, Liquid | 176.87
331.52 K, Liquid | 177.33
332.72 K, Liquid | 177.51
333.8 K, Liquid | 177.86
335.4 K, Liquid | 178.04
336.04 K, Liquid | 178.35
337.95 K, Liquid | 178.72
338.28 K, Liquid | 178.83
340 K, Liquid | 179.23
340.5 K, Liquid | 179.25
340.53 K, Liquid | 179.38
342.77 K, Liquid | 179.91
343.05 K, Liquid | 179.96
345.6 K, Liquid | 180.47
348.14 K, Liquid | 181.07
350 K, Liquid | 181.59
350.69 K, Liquid | 181.7
353.24 K, Liquid | 182.31
355.79 K, Liquid | 183.1
358.34 K, Liquid | 183.5
360 K, Liquid | 183.95
360.89 K, Liquid | 184.17
363.44 K, Liquid | 184.8
368.54 K, Liquid | 185.95
370 K, Liquid | 186.3
371.09 K, Liquid | 186.69
373.64 K, Liquid | 187.14
376.2 K, Liquid | 187.74
380 K, Liquid | 188.66

— the NIST ThermoML archive (doi:10.1021/je049762q)
